The subject of data set [1] is human colorectal cancer HCT 116 cells. The experiment in a line: Anticancer activity in nude mice transplanted with HCT 116 cells. It counts as in vivo, nude mice (Balb/c-nu/nu mice). The procedure: HCT 116 cells were prepared at a concentration of 2×10^6 cells/200 μl (RPMI) and administered subcutaneously into the right frank of 6-week-old female nude mice (Balb/c-nu/nu mice). The tumor size was measured with calipers, and the tumor size reached about 100 mm^3, 20 mice having substantially the same tumor size were divided into a control group and three sample-treated groups. The three sample-treated group were administered orally with IB-MECA at doses of 0.02, 0.2 and 2 mg/kg, respectively, for 21 days. In the control group and the sample-treated groups, the bodyweight was measured once every week, and the tumor size was measured at intervals of 3-4 days. The tumor volume was measured using equation 3 above. In the equation, a represents the longer diameter of the tumor, b represents the shorter diameter of the tumor, and c represents the height of the tumor.
Anticancer activity was measured by an animal test in the same manner as Example 20, except that 6-week-old female nude mice were administered with Cl-IB-MECA in place of IB-MECA as a sample.
Anticancer activity was measured by an animal test in the same manner as Example 20, except that 6-week-old female nude mice were administered with thio-Cl-IB-MECA in place of IB-MECA as a sample.

Data set [2] shares this test system. The experiment in a line: SRB assay, growth of HCT 116 cells. It counts as cell-based. The settings on record: 72 hours. The procedure: In order to compare the inhibitory effect of thio-Cl-IB-MECA of the present invention on the inhibition of human colorectal cancer HCT 116 cells with the effects of other A3 adenosine receptor agonists, IB-MECA and Cl-IB-MECA, a sulforhodamine B (SRB) assay was performed.
Specifically, 10 μL of a solution of thio-Cl-IB-MECA in 10% dimethylsulfoxide (DMSO) was loaded in each well of a 96-well plate in triplicate at concentrations of 100, 50, 25 and 12.5 μM, thus making a test plate. Cells were diluted to a density of 5×10^4 cells/ml with 10% FBS-containing RPMI 1640 medium supplemented with antibiotics-antimycotics, and 190 μL of the cell suspension was added to each well so as to reach a total volume of 200 μL and was cultured in a 5% CO2 incubator at 37° C. for 3 days. At the same time, 190 μL of the same cell suspension was loaded into each of 16 wells or more of a fresh 96-well plate containing no sample (thio-Cl-IB-MECA) and was cultured in a 5% CO2 incubator at 37° C. for 30 minutes, thereby determining reference date. After the culture, 50 μL of 50% trichloroacetic acid (TCA) was added to each well, and the cells were fixed by culture at 4° C. for 1 hour. Then, the well plate was washed five times with tap water and dried. 100 μL of a 1% acetic acid solution containing […] sulforhodamine B (SRB) was added to each well to stain the cells, and the well plate was allowed to stand at room temperature for 1 hour. After the well plate has been washed five times with 1% acetic acid and sufficiently dried, 200 μL of 100 mM Tris-base was added to each well, and the bound staining liquid was dissolved and sufficiently shaken in a shaker. Then, the absorbance at 515 nm was measured using an ELISA microplate reader. Based on the measured absorbance, the cell viability of the test group relative to the control group was calculated using equation 2 above. Based on the viability at each concentration, the IC50 value of the test sample was calculated using TableCurve program.
In the cases of IB-MECA or Cl-IB-MECA, the viability of cancer cells was examined in the same manner as the case of thio-Cl-IB-MECA.
For orientation: Sulforhodamine B stains cellular protein and so reports cell mass.

For data set [3], the system named is prostate cancer cell line PC-3. The experiment in a line: Anticancer activity in PC-3 tumor-transplanted nude mice. It counts as in vivo. The settings on record: 2 mg/kg orally every day for 35 days. The procedure: Based on the anticancer activity of thio-Cl-IB-MECA against prostate cancer cells, proven by the in vitro test, the anticancer activity of thio-Cl-IB-MECA was measured by an animal test. The prostate cancer cell line PC-3 was transplanted subcutaneously into nude mice, and when the tumor size reached 150-200 mm^3 after 8 days, the drug thio-Cl-IB-MECA (0.02, 0.2 and 2 mg/kg), thio-IB-MECA (2 mg/kg) or IB-MECA (2 mg/kg) was administered orally every day for 35 days. The tumor size was measured at intervals of 3-5 days. The tumor volume was measured using the following equation 3.
Tumor volume=abc×π/6 [Equation 3]
wherein a represents the longer diameter of the tumor, b represents the shorter diameter of the tumor, and c represents the height of the tumor.

The next data set concerns ICR white mice. The experiment in a line: Animal toxicity test, single oral dose. It counts as in vivo. The settings on record: mouse, in vivo, po. The procedure: In order to examine the toxicities of thio-Cl-IB-MECA and thio-IB-MECA, each of the compounds was administered orally to ICR white mice (n=10, 25 g) at a dose of 1500 mg/kg weight, and the behavioral change and state of the mice were observed.

The term IC50 denotes the concentration at which inhibition is half-maximal. Consider `CNC(=O)[C@H]1O[C@@H](n2cnc3c(NCc4cccc(I)c4)nc(Cl)nc32)[C@H](O)[C@@H]1O` [Cl-IB-MECA], for which the “inhibition rate of tumor growth” value came to 18.2% in data set [1] (0.02 mg/kg orally for 21 days), 43.8% in data set [1] (0.2 mg/kg orally for 21 days) and 67.3% in data set [1] (2 mg/kg orally for 21 days). For the same molecule, the “side effects (such as a change in bodyweight) during the test period” value in data set [1] (0.02, 0.2 and 2 mg/kg orally for 21 days) is listed as “survived healthfully without particular side effects”. For the same molecule, the “growth of HCT 116 cells” value in data set [2] (100, 50, 25 and 12.5 μM) is given as “concentration-dependently inhibited the growth”. Also, the IC50 in data set [2] (SRB) came out at 19.3 µM.

Take `CNC(=O)[C@H]1S[C@@H](n2cnc3c(NCc4cccc(I)c4)ncnc32)[C@H](O)[C@@H]1O` [thio-IB-MECA, N^6-(3-iodobenzyl)-4′-thioadenosine-5′-N-methyluronamide]: the “tumor production inhibitory activity relative to the control group” value in data set [3] is “about 53.6%”. The “maximum tolerance dose (MTD)” value in the data set with ICR white mice is “more than 1500 mg/kg”. Also, in the data set with ICR white mice (1500 mg/kg), the “survival and side effects up to 7 days after administration” value was “survived healthfully without particular side effects”.

(Values after patent US20140371244A1, “METHOD FOR TREATING PROSTATE CANCER BY USE OF PHARMACEUTICAL COMPOSITION CONTAINING A3 ADENOSINE RECEPTOR AGONIST” (priority 2009, published 2014).)
